Test results published in ChEMBL document CHEMBL5537159, “Discovery and SAR of JTE-151: A Novel RORγ Inhibitor for Clinical Development” (J Med Chem, 2024).
Active and inactive are the calls of the source. The calls are words filed in the database; no cut-off is given here.

How the values were obtained:
[1] = molecular target: T1, Nuclear receptor ROR-gamma (Homo sapiens, UniProt P51449); assay: Inhibition of GAL4 DNA-binding domain fused RORgamma (unknown origin) transfected in CHO-K1 cells incubated for 2 days by luciferase assay; assay type: cell-based
T1 sequence (P51449 whole entry): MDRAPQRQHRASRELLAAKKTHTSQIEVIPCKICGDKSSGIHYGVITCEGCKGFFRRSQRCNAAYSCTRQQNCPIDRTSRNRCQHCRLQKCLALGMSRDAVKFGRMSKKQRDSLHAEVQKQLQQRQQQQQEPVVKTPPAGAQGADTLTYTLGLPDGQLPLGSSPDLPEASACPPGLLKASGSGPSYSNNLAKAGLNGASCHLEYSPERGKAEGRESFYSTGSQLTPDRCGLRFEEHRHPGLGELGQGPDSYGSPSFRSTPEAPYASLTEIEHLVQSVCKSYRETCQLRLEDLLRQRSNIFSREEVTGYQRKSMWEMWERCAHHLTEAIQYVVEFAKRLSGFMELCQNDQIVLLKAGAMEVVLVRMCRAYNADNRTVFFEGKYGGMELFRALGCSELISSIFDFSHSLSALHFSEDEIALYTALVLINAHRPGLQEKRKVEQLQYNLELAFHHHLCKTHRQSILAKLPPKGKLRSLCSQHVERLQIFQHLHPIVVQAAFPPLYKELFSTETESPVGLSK

[2] = AUCinfinity in CD(SD) rat at 10 mg/kg, po administered as single dose and measured after 24 hrs; assay type: ADME, organism-based; details: in vivo
[3] = Volume of distribution at steady state in C57BL/6J mouse at 1 mg/kg, iv administered as single dose and measured after 24 hrs; assay type: ADME, organism-based; details: in vivo, read-out: Vdss
[4] = AUCinfinity in C57BL/6J mouse at 3 mg/kg, po administered as single dose and measured after 24 hrs; assay type: ADME, organism-based; details: in vivo
[5] = Elimination half life in Beagle dog at 1 mg/kg, iv administered as single dose and measured after 24 hrs; assay type: ADME, organism-based, Canis lupus familiaris; details: in vivo, read-out: beta t1/2 (converted)
[6] = AUCinfinity in Beagle dog at 3 mg/kg, po administered as single dose and measured after 24 hrs; assay type: ADME, organism-based, Canis lupus familiaris; details: in vivo
[7] = Oral bioavailability in Beagle dog at 3 mg/kg administered as single dose and measured after 24 hrs; assay type: ADME, organism-based, Canis lupus familiaris; details: in vivo
[8] = Elimination half life in cynomolgus monkey at 1 mg/kg, iv administered as single dose and measured after 24 hrs; assay type: ADME, organism-based, Macaca fascicularis; details: in vivo, read-out: beta t1/2 (converted)
[9] = Selectivity ratio of antagonist activity at human AR to inhibition of RORgamma (unknown origin)
[10] = Selectivity ratio of antagonist activity at human ERalpha to inhibition of RORgamma (unknown origin)
[11] = Selectivity ratio of antagonist activity at human VDR to inhibition of RORgamma (unknown origin)
[12] = Selectivity ratio of antagonist activity at mouse LXRalpha to inhibition of RORgamma (unknown origin)
[13] = Selectivity ratio of antagonist activity at human RARalpha to inhibition of RORgamma (unknown origin)
[14] = Selectivity ratio of agonist activity at mouse GR to inhibition of RORgamma (unknown origin)
[15] = Selectivity ratio of agonist activity at human AR to inhibition of RORgamma (unknown origin)
[16] = Selectivity ratio of agonist activity at human PR to inhibition of RORgamma (unknown origin)
[17] = Selectivity ratio of agonist activity at human PPARdelta to inhibition of RORgamma (unknown origin)
[18] = Selectivity ratio of agonist activity at human RXRalpha to inhibition of RORgamma (unknown origin)
Adenosine receptor A1 = Adenosine receptor A1 (Homo sapiens, UniProt P30542); assay: Inhibition of human Adenosine A1 receptor
Sequence of Adenosine receptor A1 (P30542 whole entry): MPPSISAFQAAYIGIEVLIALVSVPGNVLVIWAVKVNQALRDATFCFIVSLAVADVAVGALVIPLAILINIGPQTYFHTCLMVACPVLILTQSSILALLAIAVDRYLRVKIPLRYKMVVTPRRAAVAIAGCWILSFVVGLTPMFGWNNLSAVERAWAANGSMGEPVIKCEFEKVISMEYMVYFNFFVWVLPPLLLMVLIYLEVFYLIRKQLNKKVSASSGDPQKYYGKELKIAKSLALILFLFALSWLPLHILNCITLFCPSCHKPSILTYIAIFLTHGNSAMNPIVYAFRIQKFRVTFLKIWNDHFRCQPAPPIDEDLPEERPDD

[19] = molecular target: Beta-1 adrenergic receptor (Homo sapiens, UniProt P08588); assay: Inhibition of human adrenergic beta1 receptor
Sequence of Beta-1 adrenergic receptor (P08588 whole entry): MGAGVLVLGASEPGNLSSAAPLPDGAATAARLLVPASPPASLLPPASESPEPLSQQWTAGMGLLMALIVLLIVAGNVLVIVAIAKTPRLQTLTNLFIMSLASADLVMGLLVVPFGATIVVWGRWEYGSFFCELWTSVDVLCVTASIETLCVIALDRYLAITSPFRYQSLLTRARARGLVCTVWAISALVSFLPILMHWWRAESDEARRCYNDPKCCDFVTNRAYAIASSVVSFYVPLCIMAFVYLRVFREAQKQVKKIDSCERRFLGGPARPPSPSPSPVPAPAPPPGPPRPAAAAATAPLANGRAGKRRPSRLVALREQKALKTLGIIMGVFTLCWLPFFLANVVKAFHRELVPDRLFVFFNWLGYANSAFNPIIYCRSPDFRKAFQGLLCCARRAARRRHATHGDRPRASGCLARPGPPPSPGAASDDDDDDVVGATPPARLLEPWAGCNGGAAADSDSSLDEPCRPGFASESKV

Cannabinoid receptor 1 = Cannabinoid receptor 1 (Homo sapiens, UniProt P21554); assay: Inhibition of human CB1 receptor
Sequence of Cannabinoid receptor 1 (P21554 whole entry): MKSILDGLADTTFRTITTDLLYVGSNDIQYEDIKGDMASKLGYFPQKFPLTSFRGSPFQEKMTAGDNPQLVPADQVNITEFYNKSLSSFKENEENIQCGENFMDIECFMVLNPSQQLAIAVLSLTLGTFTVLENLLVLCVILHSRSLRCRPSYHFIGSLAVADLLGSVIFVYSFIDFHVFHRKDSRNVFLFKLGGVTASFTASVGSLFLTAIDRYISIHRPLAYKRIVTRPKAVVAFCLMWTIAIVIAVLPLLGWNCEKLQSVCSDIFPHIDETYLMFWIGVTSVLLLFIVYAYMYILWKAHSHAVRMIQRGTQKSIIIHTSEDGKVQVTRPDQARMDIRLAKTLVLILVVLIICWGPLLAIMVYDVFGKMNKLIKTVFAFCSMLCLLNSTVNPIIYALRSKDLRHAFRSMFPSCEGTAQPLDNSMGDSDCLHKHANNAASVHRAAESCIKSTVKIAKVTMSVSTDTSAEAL

[20] = Inhibition of rat K+ ATP channel
[21] = Inhibition of rat Muscarinic receptor
[22] = molecular target: Amine oxidase [flavin-containing] A (Homo sapiens, UniProt P21397); assay: Inhibition of human MAO-A
Sequence of Amine oxidase [flavin-containing] A (P21397 whole entry): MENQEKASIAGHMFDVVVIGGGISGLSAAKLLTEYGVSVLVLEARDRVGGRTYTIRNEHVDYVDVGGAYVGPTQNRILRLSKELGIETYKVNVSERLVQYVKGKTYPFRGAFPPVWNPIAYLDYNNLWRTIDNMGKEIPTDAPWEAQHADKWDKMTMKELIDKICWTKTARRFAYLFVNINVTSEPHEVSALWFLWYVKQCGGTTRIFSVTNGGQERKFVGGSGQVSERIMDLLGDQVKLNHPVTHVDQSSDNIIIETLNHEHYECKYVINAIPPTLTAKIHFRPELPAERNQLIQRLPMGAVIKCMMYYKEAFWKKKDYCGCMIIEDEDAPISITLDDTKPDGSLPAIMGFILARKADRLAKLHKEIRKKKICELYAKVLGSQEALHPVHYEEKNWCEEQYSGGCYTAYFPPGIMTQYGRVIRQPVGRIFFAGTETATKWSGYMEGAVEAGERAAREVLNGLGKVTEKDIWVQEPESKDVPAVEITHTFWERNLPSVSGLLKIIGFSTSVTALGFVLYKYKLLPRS

Cytochrome P450 1A2 = Cytochrome P450 1A2 (Homo sapiens, UniProt P05177); assay: Inhibition of CYP1A2 in human liver microsomes; assay type: ADME, Microsome
Sequence of Cytochrome P450 1A2 (P05177 whole entry): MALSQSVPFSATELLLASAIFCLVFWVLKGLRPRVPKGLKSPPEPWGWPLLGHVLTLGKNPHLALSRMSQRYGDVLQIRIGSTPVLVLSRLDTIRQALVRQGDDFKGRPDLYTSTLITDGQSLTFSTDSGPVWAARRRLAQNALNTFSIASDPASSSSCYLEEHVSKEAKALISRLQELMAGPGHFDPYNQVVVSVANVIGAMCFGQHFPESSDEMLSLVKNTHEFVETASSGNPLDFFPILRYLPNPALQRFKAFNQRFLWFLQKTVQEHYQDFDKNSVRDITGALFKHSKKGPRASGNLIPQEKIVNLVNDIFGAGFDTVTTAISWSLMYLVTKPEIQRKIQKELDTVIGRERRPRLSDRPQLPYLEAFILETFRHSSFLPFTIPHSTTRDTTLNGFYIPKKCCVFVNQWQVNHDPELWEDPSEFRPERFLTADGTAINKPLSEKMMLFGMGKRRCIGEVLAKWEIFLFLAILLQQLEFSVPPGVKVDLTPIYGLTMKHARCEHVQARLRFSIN

Cytochrome P450 2B6 = Cytochrome P450 2B6 (Homo sapiens, UniProt P20813); assay: Inhibition of CYP2B6 in human liver microsomes; assay type: ADME, Microsome
Sequence of Cytochrome P450 2B6 (P20813 whole entry): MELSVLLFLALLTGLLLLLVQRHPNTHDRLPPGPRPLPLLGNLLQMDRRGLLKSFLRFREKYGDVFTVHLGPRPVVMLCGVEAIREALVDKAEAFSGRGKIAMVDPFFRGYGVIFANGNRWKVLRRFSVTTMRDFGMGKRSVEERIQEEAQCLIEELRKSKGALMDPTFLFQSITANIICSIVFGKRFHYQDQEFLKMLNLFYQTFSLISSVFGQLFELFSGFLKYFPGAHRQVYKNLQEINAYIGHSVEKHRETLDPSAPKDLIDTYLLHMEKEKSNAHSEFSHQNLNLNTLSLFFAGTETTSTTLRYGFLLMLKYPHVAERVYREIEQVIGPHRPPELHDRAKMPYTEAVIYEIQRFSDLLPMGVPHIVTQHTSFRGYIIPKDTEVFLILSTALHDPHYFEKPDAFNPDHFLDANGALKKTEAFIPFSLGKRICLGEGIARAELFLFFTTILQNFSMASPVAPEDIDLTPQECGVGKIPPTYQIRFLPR

Cytochrome P450 2C19 = Cytochrome P450 2C19 (Homo sapiens, UniProt P33261); assay: Inhibition of CYP2C19 in human liver microsomes; assay type: ADME, Microsome
Sequence of Cytochrome P450 2C19 (P33261 whole entry, the tested form may be a part): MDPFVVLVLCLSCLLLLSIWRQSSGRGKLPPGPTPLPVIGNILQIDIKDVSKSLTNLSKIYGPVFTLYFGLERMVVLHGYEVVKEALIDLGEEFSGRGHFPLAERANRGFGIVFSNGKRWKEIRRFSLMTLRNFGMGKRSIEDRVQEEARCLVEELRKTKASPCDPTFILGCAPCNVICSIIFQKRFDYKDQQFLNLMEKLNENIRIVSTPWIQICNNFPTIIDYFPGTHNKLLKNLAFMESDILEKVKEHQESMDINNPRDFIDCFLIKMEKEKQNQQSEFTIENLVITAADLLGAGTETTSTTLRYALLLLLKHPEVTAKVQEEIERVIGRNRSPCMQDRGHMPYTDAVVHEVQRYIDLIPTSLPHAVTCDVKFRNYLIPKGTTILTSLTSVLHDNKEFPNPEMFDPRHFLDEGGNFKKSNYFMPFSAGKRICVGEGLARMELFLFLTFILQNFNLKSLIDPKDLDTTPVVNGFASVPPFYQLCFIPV

Mus musculus = assay: Anti-inflammatory activity in complete Freund's adjuvant/MOG (35 to 55 residues)/pertussis toxin-induced experimental autoimmune encephalomyelitis C57BL/6 mouse model assessed as reduction in Th17 cell differentiation by measuring reduction in number of Th17 cells in spinal cords at 3 to 10 mg/kg, po administered once daily for 17 days and measured on day 18 by flow cytometry analysis; assay type: functional, organism-based; details: dose 3-10 mg/kg, time 18.0 day
[23] = molecular target: Voltage-gated inwardly rectifying potassium channel KCNH2 (Homo sapiens, UniProt Q12809); assay: Inhibition of hERG transfected in HEK293 cells by whole cell patch-clamp method; assay type: toxicity, cell-based
Sequence of Voltage-gated inwardly rectifying potassium channel KCNH2 (Q12809 whole entry): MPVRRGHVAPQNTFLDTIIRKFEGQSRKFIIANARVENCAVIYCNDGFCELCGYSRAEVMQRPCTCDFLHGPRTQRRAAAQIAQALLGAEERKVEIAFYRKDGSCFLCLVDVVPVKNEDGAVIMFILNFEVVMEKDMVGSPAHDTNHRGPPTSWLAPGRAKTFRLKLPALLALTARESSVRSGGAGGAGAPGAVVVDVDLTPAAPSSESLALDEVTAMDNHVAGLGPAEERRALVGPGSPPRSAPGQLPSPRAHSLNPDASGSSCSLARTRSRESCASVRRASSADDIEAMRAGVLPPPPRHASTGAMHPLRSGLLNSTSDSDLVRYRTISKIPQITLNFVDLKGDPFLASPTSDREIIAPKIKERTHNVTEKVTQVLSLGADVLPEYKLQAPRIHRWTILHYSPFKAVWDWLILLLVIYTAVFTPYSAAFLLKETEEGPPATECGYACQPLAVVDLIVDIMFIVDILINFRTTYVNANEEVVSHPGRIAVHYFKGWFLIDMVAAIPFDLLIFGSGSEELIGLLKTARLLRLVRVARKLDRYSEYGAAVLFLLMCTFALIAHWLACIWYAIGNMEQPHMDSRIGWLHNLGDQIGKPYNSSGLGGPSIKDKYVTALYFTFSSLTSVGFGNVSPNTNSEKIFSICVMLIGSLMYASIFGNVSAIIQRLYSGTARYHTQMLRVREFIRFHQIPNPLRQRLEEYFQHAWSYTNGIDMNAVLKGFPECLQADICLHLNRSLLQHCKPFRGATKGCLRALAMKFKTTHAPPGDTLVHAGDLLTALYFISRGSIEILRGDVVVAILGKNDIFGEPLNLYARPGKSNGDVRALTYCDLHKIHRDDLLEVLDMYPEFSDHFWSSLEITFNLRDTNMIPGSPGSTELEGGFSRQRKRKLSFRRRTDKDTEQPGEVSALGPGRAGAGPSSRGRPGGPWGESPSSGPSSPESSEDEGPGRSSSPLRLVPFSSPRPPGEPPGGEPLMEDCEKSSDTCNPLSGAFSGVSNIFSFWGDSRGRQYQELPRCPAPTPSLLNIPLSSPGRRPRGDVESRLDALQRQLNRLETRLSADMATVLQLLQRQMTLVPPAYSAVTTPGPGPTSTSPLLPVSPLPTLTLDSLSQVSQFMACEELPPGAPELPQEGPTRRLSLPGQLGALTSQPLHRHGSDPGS

[24] = Genotoxicity in Salmonella typhimurium TA100 at 23 to 750 ug in absence of S9 fraction by bacterial reverse mutation test; assay type: toxicity, Salmonella enterica subsp. enterica serovar Typhimurium; details: in vivo; dose 23-750 µg
[25] = Genotoxicity in Salmonella typhimurium TA98 at 47 to 1500 ug in presence of S9 fraction by bacterial reverse mutation test; assay type: toxicity, subcellular, Salmonella enterica subsp. enterica serovar Typhimurium; details: dose 47-1500 µg
[26] = Toxicity in CHL cells assessed as chromosomal aberration at 30 to 50 ug/ml incubated for 24 hrs in absence of S9 fraction; assay type: cell-based, Cricetulus griseus; details: chinese hamster, dose 30-50 µg/ml
[27] = Cmax in human at 30 […], po administered as single dose and measured upto 144 hrs; assay type: ADME, organism-based; details: in vivo
[28] = Cmax in human at 100 […], po administered as single dose and measured upto 144 hrs; assay type: ADME, organism-based; details: in vivo
[29] = Cmax in human at 600 […], po administered as single dose and measured upto 144 hrs; assay type: ADME, organism-based; details: in vivo
[30] = Cmax in human at 1600 […], po administered as single dose and measured upto 144 hrs; assay type: ADME, organism-based; details: in vivo
[31] = Tmax in human at 1000 […], po administered as single dose and measured upto 144 hrs; assay type: ADME, organism-based; details: in vivo
[32] = Tmax in human at 1600 […], po administered as single dose and measured upto 144 hrs; assay type: ADME, organism-based; details: in vivo
[33] = Elimination half life in human at 60 mg/kg, po administered as single dose and measured upto 144 hrs; assay type: ADME, organism-based; details: in vivo, read-out: beta t1/2 (converted)
[34] = Elimination half life in human at 100 […], po administered as single dose and measured upto 144 hrs; assay type: ADME, organism-based; details: in vivo, read-out: beta t1/2 (converted)
[35] = Elimination half life in human at 200 mg/kg, po administered as single dose and measured upto 144 hrs; assay type: ADME, organism-based; details: in vivo, read-out: beta t1/2 (converted)
[36] = Toxicity in Beagle dog assessed as development-limiting toxicity at 100 mg/kg, po bid administered 2 doses at 4 hrs interval and measured on day 1,14 and 28; assay type: organism-based, Canis lupus familiaris; details: in vivo, 672 h, time 28 day

Cc1ccc(NC(=O)C[C@H](CCC(=O)O)c2noc([C@H]3C[C@@H](CC(C)(C)C)C3)c2C2CC2)c(Cl)c1
EC50 [1]: 0.013 µM
AUC(0-inf) [2]: 191 µM·h
Vd [3]: 0.16 L/kg
AUC(0-inf) [4]: 173 µM·h
half-life [5]: 5.5 h
AUC(0-inf) [6]: 118 µM·h
bioavailability [7]: 64%
half-life [8]: 5.9 h
Selectivity ratio [9]: > 100
Selectivity ratio [10]: > 100
Selectivity ratio [11]: > 100
Selectivity ratio [12]: > 100
Selectivity ratio [13]: > 100
Selectivity ratio [14]: > 100
Selectivity ratio [15]: > 100
Selectivity ratio [16]: > 100
Selectivity ratio [17]: > 100
Selectivity ratio [18]: > 100
IC50 (Adenosine receptor A1): > 10 µM
IC50 [19]: > 10 µM
IC50 (Cannabinoid receptor 1): > 10 µM
IC50 [20]: > 10 µM
IC50 [21]: > 10 µM
IC50 [22]: > 10 µM
IC50 (Cytochrome P450 1A2): > 10 µM
IC50 (Cytochrome P450 2B6): > 10 µM
IC50 (Cytochrome P450 2C19): > 10 µM
Activity (Mus musculus): Active
IC50 [23]: 7.4 µM
Activity [24]: Non-Toxic
Activity [25]: Non-Toxic
Activity [26]: Non-Toxic
Cmax [27]: 1220 ng/mL
Cmax [28]: 3810 ng/mL
Cmax [29]: 26400 ng/mL
Cmax [30]: 60700 ng/mL
Tmax [31]: 3.5 h
Tmax [32]: 3.54 h
half-life [33]: 5.49 h
half-life [34]: 13.2 h
half-life [35]: 12.4 h
Activity [36]: Non-Toxic
